Measured values from US8008491B2, “Substituted AZA-indoles as inhibitors of poly(ADP-ribose) polymerase (PARP)” (Aventis Pharmaceuticals, Inc., priority 2003, dated 2011).
Structures can show the parent of a compound that is named as a salt.

Test system: HL-60 (human leukemia) cells
Experiment: Cell-based assay: protection from cell death induced by serum deprivation (Alamar Blue)
Settings: median effective concentration preventing cell death, HL-60, 0.1% FCS, 24 hr
Experimental: HL-60 (human leukemia) cells are grown and maintained using standard procedures in RPMI 1640+Glutamax medium supplemented with 10% fetal calf serum (FCS). For assay, cells are suspended in medium supplemented with 0.1% FCS at 0.5 million cells/mL and seeded into 96 well plates (100 μL/well). After preincubation for 3 hrs, cells are treated with compound for 1 hr, then Alamar Blue (Serotec) is added to the cells. After a further 24 hr incubation, fluorescence is measured (ex 560 nm, em 590 nm). Decrease in fluorescence compared to control cells (10 μM of a potent PARP inhibitor) is a measure of cell death. Increased fluorescence in the presence of test compound indicates protection from cell death induced by serum deprivation. For detection of polyADP-ribosylation, cells are subjected to serum deprivation in the presence and absence of compound. Cells are lysed and proteins are run on an SDS-PAGE gel. PolyADP-ribosylated proteins are detected with antibody to polyADP-ribose (Alexis or Calbiochem).
The results obtained from this study are expressed as EC50 (median effective concentration of the test compound that was effective in preventing the cell death—expressed in micromolar (μM) concentration) for each of the tested compounds and are summarized in Table 4.

| Compound | EC50 |
| --- | --- |
| O=Cc1c(N2CCN(CCO)CC2)n(-c2ccccc2)c2ccccc12 [Example 2, 2-[4-(2-hydroxyethyl)piperazin-1-yl]-1-phenyl-1H-indole-3-carboxaldehyde] | 3.4 µM |
| Cn1c(N2CCNCC2)c(C=O)c2ccccc21 [Example 9, 2-(Piperazin-1-yl)-1-methyl-1H-indole-3-carboxaldehyde] | 8 µM |
| O=Cc1c(N2CCNCC2)n(-c2ccsc2)c2ccccc12 [Example 12, 2-(Piperazin-1-yl)-1-(thien-3-yl)-1H-indole-3-carboxaldehyde] | 3 µM |

Test system: not given
Experiment: not given
Settings: not given

| melting point | Compound |
| --- | --- |
| 163 to 165 °C | O=Cc1c(N2CCNCC2)n(Cc2ccccc2)c2ccccc12 |

Molecular target: T1, human PARP (PARP1) (Homo sapiens, UniProt P09874)
Experiment: Radioactivity enzyme assay: incorporation of labeled NAD into acid-precipitated protein
Format: biochemical
Settings: reference compounds, NAD 200 μm
Source text: Full length human PARP (PARP1) is assembled from PCR fragments of a clone from a human brain cDNA library and two Incyte clones. The PARP gene (3046 bp) is sub-cloned into pFastBac-HTb vector to give PARP-pFastBac-HTh and the sequence of this clone is verified. PARP-pFastBac-HTb is expressed to obtain protein using the Bac-to-Bac expression protocol from Gibco-BRL. The recombinant virus generated is used to scale up the material for purification.
Cell pellets from cell broth of cells expressing PARP are treated with a cocktail of protease inhibitors and lysed by 4 freeze-thaw cycles. The material is suspended in 10 mM HEPES/0.1M NaCl/pH 7.2, stirred, and then centrifuged. A 40%-70% ammonium sulfate cut of protein pellet is obtained from the supernatant. The pellet is solubilized in 10 mM HEPES/pH 7.2 and centrifuged. The supernatant buffer is exchanged to 10 mM HEPES/pH 7.2/0.1M NaCl/25% glycerol by dialysis or with a desalting column. The enzyme preparation is stored at −20° C. until use.
Incorporation of radioactivity from labeled NAD into acid-precipitated protein is measured. […] After washing with TCA and ethanol, the filter is dried and counted for tritium CPM after addition of scintillation fluid.

T1 sequence (P09874 whole entry): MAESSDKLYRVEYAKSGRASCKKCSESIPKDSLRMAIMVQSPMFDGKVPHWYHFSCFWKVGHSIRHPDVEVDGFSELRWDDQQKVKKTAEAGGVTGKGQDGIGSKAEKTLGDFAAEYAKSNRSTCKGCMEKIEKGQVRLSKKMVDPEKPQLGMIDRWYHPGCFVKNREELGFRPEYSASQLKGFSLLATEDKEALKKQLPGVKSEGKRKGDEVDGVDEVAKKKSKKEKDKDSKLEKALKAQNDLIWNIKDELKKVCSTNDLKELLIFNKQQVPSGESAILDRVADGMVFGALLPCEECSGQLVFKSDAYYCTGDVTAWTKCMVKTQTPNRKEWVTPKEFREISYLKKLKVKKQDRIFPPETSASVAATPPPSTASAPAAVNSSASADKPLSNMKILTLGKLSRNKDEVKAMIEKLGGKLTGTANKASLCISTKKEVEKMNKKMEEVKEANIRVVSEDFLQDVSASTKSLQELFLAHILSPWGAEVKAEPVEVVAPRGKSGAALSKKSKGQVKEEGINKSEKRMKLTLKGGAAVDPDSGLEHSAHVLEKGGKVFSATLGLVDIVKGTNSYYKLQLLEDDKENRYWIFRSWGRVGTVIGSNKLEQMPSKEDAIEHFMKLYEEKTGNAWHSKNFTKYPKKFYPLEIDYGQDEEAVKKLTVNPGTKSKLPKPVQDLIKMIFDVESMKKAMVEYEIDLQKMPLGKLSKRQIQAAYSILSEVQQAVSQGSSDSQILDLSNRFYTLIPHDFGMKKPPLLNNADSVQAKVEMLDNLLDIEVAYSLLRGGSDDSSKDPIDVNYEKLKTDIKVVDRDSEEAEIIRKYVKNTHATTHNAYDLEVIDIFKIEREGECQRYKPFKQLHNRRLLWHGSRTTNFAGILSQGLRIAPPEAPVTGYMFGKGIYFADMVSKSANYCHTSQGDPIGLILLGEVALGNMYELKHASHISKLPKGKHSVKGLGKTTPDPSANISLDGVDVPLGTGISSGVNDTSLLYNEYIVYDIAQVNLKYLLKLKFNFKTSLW

| IC50 | Compound |
| --- | --- |
| 1 µM | Oc1cccc2c(O)nccc12 [1,5-isoquinolinediol] |

Molecular target: T1, human PARP (PARP1)
Experiment: PARP enzyme assay of Table 3 (radioactive enzyme assay or 'ELISA' enzyme assay);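 further: Baculovirus-expressed PARP1 from insect cells, activity read as tritium from labeled NAD in acid-precipitated protein, or as biotin-NAD built into plate-bound histone by absorbance at 450 nm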
Settings: IC50 (μM), fifty percent inhibitory concentration; recombinant human PARP
Experimental: The compounds of this invention are then tested with this enzyme preparation using either the radioactive enzyme assay or by the “ELISA” enzyme assay as set forth below.
Incorporation of radioactivity from labeled NAD into acid-precipitated protein is measured. The reaction mixture (volume 100 μL or 50 μL, in a test-tube or 96-well plate) contained 100 μg/mL calf thymus DNA (sonicated), 100 μg/mL histones, 100 mM Tris (pH 8.0), 1.0 mM DTT, 10 mM MgCl2, NAD (200 μm, 0.65 microcurie/mL), and varying amounts of enzyme. The reaction was incubated for 10 min at 37° C. or at room temperature for 60 min. The reaction was stopped and protein precipitated by addition of ice-cold trichloroacetic acid (TCA; 10% or 20% aqueous w/v). After brief storage in ice or at 4° C. for 2 hrs, the reaction mixture is filtered under vacuum through a glass fiber filter (2.5 cm disc, or 96-well filter plate). After washing with TCA and ethanol, the filter is dried and counted for tritium CPM after addition of scintillation fluid.
Incorporation of biotin-NAD into histone coated on plate is measured. A 96-well protein-binding EIA plate is coated with histone and blocked with bovine serum albumin. The reaction mixture (50 μL) contained DNA, buffer, enzyme, (test compound), and 250 μM of NAD and 5 μL of biotin-NAD (Trevigen). After reaction at room temperature the wells are washed and treated with Extravidin (Sigma). After incubation and washing color is developed with the peroxidase substrate TMB (Sigma). The TMB reaction is quenched with 2M sulfurric acid and the absorbance at 450 nm is read.

| Compound | IC50 |
| --- | --- |
| O=Cc1c(N2CCSCC2)n(-c2ccccc2)c2ccccc12 [Example 1, 1-Phenyl-2-(thiomorphin-4-yl)-1H-indole-3-carboxaldehyde] | 15.1 µM |
| O=Cc1c(N2CCN(CCO)CC2)n(-c2ccccc2)c2ccccc12 [Example 2, 2-[4-(2-hydroxyethyl)piperazin-1-yl]-1-phenyl-1H-indole-3-carboxaldehyde] | 4.6 µM |
| Cn1c(N2CCNCC2)c(C=O)c2ccccc21 [Example 9, 2-(Piperazin-1-yl)-1-methyl-1H-indole-3-carboxaldehyde] | 27.5 µM |
| O=Cc1c(N2CCNCC2)n(-c2cccc3ccccc23)c2ccccc12 [Example 11B-2, 2-(Piperazin-1-yl)-1-(1-naphthyl)-1H-indole-3-carboxaldehyde] | 4 µM |
| COc1ccc(-n2c(N3CCNCC3)c(C=O)c3ccccc32)cc1 [Example 11B-3, 2-(Piperazin-1-yl)-1-(4-methoxyphenyl)-1H-indole-3-carboxaldehyde] | 4.5 µM |
| CC(C)(C)c1ccc(-n2c(N3CCNCC3)c(C=O)c3ccccc32)cc1 [Example 11B-4, 2-(Piperazin-1-yl)-1-(4-tert-butylphenyl)-1H-indole-3-carboxaldehyde] | 10 µM |
| O=Cc1c(N2CCNCC2)n(-c2ccc(Cl)cc2)c2ccccc12 [Example 11B-6, 2-(Piperazin-1-yl)-1-(4-chlorophenyl)-1H-indole-3-carboxaldehyde] | 4 µM |
| O=Cc1c(N2CCNCC2)n(-c2ccc(F)c(Cl)c2)c2ccccc12 [Example 11B-7, 2-(Piperazin-1-yl)-1-(3-chloro-4-fluorophenyl)-1H-indole-3-carboxaldehyde] | 4 µM |
| COc1cccc(-n2c(N3CCNCC3)c(C=O)c3ccccc32)c1 [Example 11B-8, 2-(Piperazin-1-yl)-1-(3-methoxyphenyl)-1H-indole-3-carboxaldehyde] | 5.5 µM |
| CSc1ccc(-n2c(N3CCNCC3)c(C=O)c3ccccc32)cc1 [Example 11B-9, 2-(Piperazin-1-yl)-1-(4-thiomethylphenyl)-1H-indole-3-carboxaldehyde] | 4 µM |
| CC(C)(C)OC(=O)NCCN1CCN(c2c(C=O)c3ccccc3n2-c2ccccc2)CC1 [Example 19] | 8.8 µM |
| O=Cc1c(N2CC3CC2CN3)n(-c2ccccc2)c2ccccc12 (stereo not drawn) [Example 21] | 5.1 µM |
| O=Cc1c(N2CCCNCC2)n(-c2ccccc2)c2ccccc12 [Example 22, 2-[1,4]Diazepan-1-yl-1-phenyl-1H-indole-3-carboxaldehyde] | 4.5 µM |
| O=Cc1c(N2CCN(CCO)CC2)n(-c2ccccc2)c2ccccc12 [Example 41, 2-[4-(2-Hydroxethyl)piperazin-1-yl]-1-phenyl-1H-indole-3-carboxaldehyde Hydrochloride] | 43.1 µM |
| O=Cc1c(N2CCOCC2)n(-c2ccccc2)c2ccccc12 [Example 43, 2-(Morpholin-4-yl)-1-phenyl-1H-indole-3-carboxaldehyde] | 11.4 µM |
| CC(C)(C)OC(=O)N1CC2CC1CN2c1c(C=O)c2ccccc2n1-c1ccccc1 (stereo not drawn) [Example 45, 5-(3-Formyl-1-phenyl-1H-indol-2yl)-2,5-diazabicyclo[2.2.1]heptane-2-carboxylic acid tert-butyl ester] | 5.1 µM |
| O=Cc1c(N2CCNCC2)n(-c2ccc(-c3ccccc3)cc2)c2ccccc12 [Example 47, 1-(Biphenyl-4-yl)-2-piperazin-1-yl-1H-indole-3-carboxaldehyde Hydrochloride] | 6.9 µM |
| CCc1ccc(-n2c(N3CCNCC3)c(C=O)c3ccccc32)cc1 [Example 48, 1-(4-Ethylphenyl)-2-(piperazin-1-yl)-1H-indole-3-carboxaldehyde Hydrochloride] | 15.5 µM |
| CN(C)c1ccc(-n2c(N3CCNCC3)c(C=O)c3ccccc32)cc1 [Example 51, 1-(4-Dimethylaminophenyl)-2-piperazin-1-yl-1H-indole-3-carboxaldehyde] | 26 µM |
| O=Cc1c(N2CCNCC2)n(-c2ccc(Oc3ccccc3)cc2)c2ccccc12 [Example 52, 1(4-Phenoxyphenyl)-2-(piperazin-1-y)l-1H-indole-3-carboxaldehyde] | 42.2 µM |
| Cc1ccc(-n2c(N3CCNCC3)c(C=O)c3ccccc32)cc1 [Example 53, 1-(4-Methylphenyl)-2-(piperazin-1-yl)-1H-indole-3-carboxaldehyde] | 19.9 µM |
| O=Cc1c(N2CCNCC2)n(-c2ccc(F)cc2)c2ccccc12 [Example 54, 1-(4-Fluorophenyl)-2-(piperazin-1-yl)-1H-indole-3-carboxaldehyde Hydrochloride] | 3.1 µM |
| O=Cc1c(N2CCNCC2)n(-c2cccc(Cl)c2)c2ccccc12 [Example 55] | 4.1 µM |

Next, values leading:

| IC50 | Compound |
| --- | --- |
| 2.5 µM | O=Cc1c(N2CCNCC2)n(-c2cccc([N+](=O)[O-])c2)c2ccccc12 [Example 11B-1, 2-(Piperazin-1-yl)-1-(3-nitrophenyl)-1H-indole-3-carboxaldehyde] |
| 3 µM | O=Cc1c(N2CCNCC2)n(-c2ccc(Br)cc2)c2ccccc12 [Example 11B-5, 2-(Piperazin-1-yl)-1-(4-bromophenyl)-1H-indole-3-carboxaldehyde] |
| 2.5 µM | O=Cc1c(N2CCNCC2)n(-c2cccc(F)c2)c2ccccc12 [Example 11B-10, 2-(Piperazin-1-yl)-1-(3-fluorophenyl)-1H-indole-3-carboxaldehyde] |
| 3 µM | Cc1cccc(-n2c(N3CCNCC3)c(C=O)c3ccccc32)c1 [Example 11B-11, 2-(Piperazin-1-yl)-1-(3-methylphenyl)-1H-indole-3-carboxaldehyde] |
| 2 µM | O=Cc1c(N2CCNCC2)n(-c2ccsc2)c2ccccc12 [Example 12, 2-(Piperazin-1-yl)-1-(thien-3-yl)-1H-indole-3-carboxaldehyde] |
| 3 µM | O=Cc1c(N2CCNCC2)n(-c2cccnc2)c2ccccc12 [Example 13, 2-(Piperazin-1-yl)-1-(pyridin-3-yl)-1H-indole-3-carboxaldehyde] |
| 0.85 µM | O=Cc1cccc(-n2c(N3CCNCC3)c(C=O)c3ccccc32)c1 [Example 46] |
| 1.9 µM | O=Cc1c(N2CCNCC2)n(-c2cccc(Br)c2)c2ccccc12 [Example 49, 1-(3-Bromophenyl)-2-piperazin-1-yl-1H-indole-3-carboxaldehyde] |
| 1.4 µM | Cc1ccc(-n2c(N3CCNCC3)c(C=O)c3ccccc32)cc1[N+](=O)[O-] [Example 50, 1-(4-Methyl-3-nitrophenyl)-2-(piperazin-1-yl)-1H-indole-3-carboxaldehyde] |
| 1.5 µM | C=Cc1ccc(-n2c(N3CCNCC3)c(C=O)c3ccccc32)cc1 [Example 56, 2-(Piperazin-1-yl)-1-(4-vinylphenyl)-1H-indole-3-carboxaldehyde] |
| 1.4 µM | O=Cc1c(N2CCNCC2)n(-c2cccc(CO)c2)c2ccccc12 [Example 57, 1-(3-Hydroxymethylphenyl)-2-(piperazin-1-yl)-1H-indole-3-carboxaldehyde] |
| 0.85 µM | CCOc1cccc(-n2c(N3CCNCC3)c(C=O)c3ccccc32)c1 [Example 58, 1-(3-Ethoxyphenyl)-2-(piperazin-1-yl)-1H-indole-3-carboxaldehyde] |
| 2.7 µM | CCCCc1ccc(-n2c(N3CCNCC3)c(C=O)c3ccccc32)cc1 [Example 61, 1-(4-Butylphenyl-2-(piperazin-1-yl)-1H-indole-3-carboxaldehyde Hydrochloride] |
| 0.99 µM | CC(=O)Nc1cccc(-n2c(N3CCNCC3)c(C=O)c3ccccc32)c1 [Example 62, N-{3-[3-Formyl-2-(piperazin-1-yl)-indol-1-yl]phenyl}-acetamide Hydrochloride] |
| 2.3 µM | N#Cc1ccc(-n2c(N3CCNCC3)c(C=O)c3ccccc32)cc1 [Example 63, 4-[3-Formyl-2-(piperazin-1-yl)-indol-1-yl]-benzonitrile] |

Test system: Male Sprague-Dawley rats
Experiment: Myocardial ischemia model: coronary artery occlusion and reperfusion, infarct size
Format: in vivo, rat
Settings: 10 mg/kg i.v. 5 min prior to reperfusion (Example 3); 20 min occlusion, 60 min reperfusion
Source text: Male Sprague-Dawley rats are anesthetized and the chest is opened. A thin silk thread is placed around the left anterior descending coronary artery. The silk is passed through a plastic tube and the chest is closed. After stable hemodynamics, the coronary artery is occluded by applying tension to the thread via the tube. Successful occlusion is confirmed by a decrease in systolic blood pressure and alterations in ECG. Reperfusion is initiated by releasing the tension on the ligature.
For testing efficacy of Example 3 in this animal model, animals are divided into three groups. One group received the compound of Example 3 at 10 mg/kg i.v. 10 min prior to occlusion. A second group received compound of Example 3 at the same dose 5 min prior to reperfusion. The third group served as vehicle control. The period of occlusion is 20 min, followed by reperfusion for 60 min. After sacrifice infarct size is measured by staining of heart tissue slices with triphenyltetrazolium chloride and expressed as a percent (%) of area at risk.
A similar study is carried out with cariporide, a reference standard.

| Compound | infarct size (% of area at risk), effect when given prior to reperfusion |
| --- | --- |
| CC(C)c1ccc(C(=O)NC(=N)N)cc1S(C)(=O)=O [cariporide, reference compound] | no effect |

Same assay, conditions: 10 mg/kg i.v. 10 min prior to occlusion (Example 3); 20 min occlusion, 60 min reperfusion

| Compound | infarct size (% of area at risk), effect when given prior to ischemia |
| --- | --- |
| CC(C)c1ccc(C(=O)NC(=N)N)cc1S(C)(=O)=O [cariporide, reference compound] | significant protection |
